Consider 4 compounds from patent US6525001B1, “Substituted pyrimidine and pyridine herbicides” (Mid-American Commercialization Corporation, priority 1997, dated 2003).

Common to all, as to type: in vivo
For assay [1], the system named is surinam grass (Brachiaria decumbens). The assay is described as follows: Test E pre-/postemergence/post directed. Also noted: key: 0 is no injury; 100 is complete control. The conditions noted are these: PREEMERGENCE
In outline: (§1)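 Injury was scored visually on a 0 to 100 scale (100 = complete control) 13 to 21 days after treatment of greenhouse-grown plants. Test chemicals, in a surfactant-containing non-phytotoxic solvent, were sprayed onto soil within a day of planting, onto plants at the two to four leaf stage, or directed at the base of the plants.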

Assay [2] concerns johnson grass (Sorghum halepense). The experiment in a line: Test E pre-/postemergence/post directed. Also noted: key: 0 is no injury; 100 is complete control. The conditions noted are these: PREEMERGENCE
In outline: as §1

The test system of assay [3] is itchgrass (Rottboellia exaltata). The experiment in a line: Test E pre-/postemergence/post directed. Also noted: key: 0 is no injury; 100 is complete control. The conditions noted are these: PREEMERGENCE
An outline of the steps:
as §1

Assay [4] has as its system downy brome (Bromus tectorum). The experiment in a line: Test D. As to conditions: PREEMERGENCE
The subject of assay [5] is wild mustard (Sinapis arvensis). The assay is described as follows: Test D. As to conditions: PREEMERGENCE
Also noted: key: 0 is no effect; 100 is complete control.

Assay [6] deals with Spanishneedles (Bidens bipinnata). The experiment in a line: Test E pre-/postemergence/post directed. The conditions noted are these: PREEMERGENCE
Also noted: key: 0 is no injury; 100 is complete control. An outline of the steps: as §1

Assay [7] relates to barnyardgrass (Echinochloa crus-galli). The assay is described as follows: Test E pre-/postemergence/post directed. As to conditions: PREEMERGENCE
In outline:
as §1

For assay [8], the system named is sugarcane (Saccharum officinarum). The experiment in a line: Test E pre-/postemergence/post directed. Also noted: key: 0 is no injury; 100 is complete control. An outline of the steps: as §1
Assay [9] concerns sandbur (Cenchrus echinatus). The experiment in a line: Test E pre-/postemergence/post directed. As to conditions: PREEMERGENCE
Also noted: key: 0 is no effect; 100 is complete control. An outline of the steps:
as §1

For assay [10], the system named is B. signalgrass. The assay is described as follows: Test E pre-/postemergence/post directed. The arrangement: key: 0 is no effect; 100 is complete control. The conditions noted are these: PREEMERGENCE
An outline of the steps:
as §1

The subject of assay [11] is pitted morningglory (Ipomoea lacunosa). The assay is described as follows: Test E pre-/postemergence/post directed. The arrangement: key: 0 is no effect; 100 is complete control. The conditions noted are these: PREEMERGENCE
An outline of the steps:
as §1

The subject of assay [12] is alexandergrass (Brachiaria plantaginea). The experiment in a line: Test E pre-/postemergence/post directed. Also noted: key: 0 is no effect; 100 is complete control. As to conditions: PREEMERGENCE
In outline: as §1

In assay [13] the test system is common chickweed (Stellaria media). The experiment in a line: Test E pre-/postemergence/post directed. The arrangement: key: 0 is no effect; 100 is complete control. As to conditions: PREEMERGENCE
An outline of the steps: as §1

In assay [14] the test system is johnson grass (Sorghum halepense). The assay is described as follows: Test E pre-/postemergence/post directed. As to conditions: PREEMERGENCE
Also noted: key: 0 is no effect; 100 is complete control. An outline of the steps:
as §1

The subject of assay [15] is leafy spurge (Euphorbia esula). The assay is described as follows: Test E pre-/postemergence/post directed. The arrangement: key: 0 is no effect; 100 is complete control. The conditions noted are these: PREEMERGENCE
In outline:
as §1

The test system of assay [16] is annual bluegrass (Poa annua). The experiment in a line: Test E pre-/postemergence/post directed. Also noted: key: 0 is no effect; 100 is complete control. The conditions noted are these: PREEMERGENCE
In outline:
as §1

Assay [17] concerns arrowleaf sida (Sida rhombifolia). The experiment in a line: Test E pre-/postemergence/post directed. The arrangement: key: 0 is no effect; 100 is complete control. The conditions noted are these: PREEMERGENCE
In outline:
as §1

The test system of assay [18] is quackgrass (Agropyron repens). The experiment in a line: Test E pre-/postemergence/post directed. The arrangement: key: 0 is no effect; 100 is complete control. As to conditions: PREEMERGENCE
An outline of the steps:
as §1

For assay [19], the system named is green foxtail (Setaria viridis). The assay is described as follows: Test E pre-/postemergence/post directed. Also noted: key: 0 is no effect; 100 is complete control. As to conditions: PREEMERGENCE
An outline of the steps: as §1

Assay [20] deals with Spanishneedles (Bidens bipinnata). The assay is described as follows: Test E pre-/postemergence/post directed. Also noted: key: 0 is no effect; 100 is complete control. As to conditions: PREEMERGENCE
An outline of the steps: as §1

In the case of `CCc1cnc(-n2ccc(C(F)(F)F)n2)nc1Cc1cccc(C(F)(F)F)c1` [Compound 46], the “Plant response rating, Surinam grass” value in assay [1] (Rate 32 g/ha) and in assay [1] (Rate 64 g/ha) was 0 throughout. Also, the “Plant response rating, Johnsongrass” value in assay [2] (Rate 32 g/ha), in assay [2] (Rate 64 g/ha), in [2] (Rate 125 g/ha) and in assay [2] (Rate 250 g/ha) was 0 in each case. Moreover, the “Plant response rating, Itchgrass” value in assay [3] (Rate 32 g/ha) and in [3] (Rate 64 g/ha) was 0 each time. In addition, the “Plant response rating, Downy brome” value in assay [4] (Rate 31 g/ha) and in [4] (Rate 62 g/ha) was 70 each time. Besides, the “Plant response rating, Wild mustard” value in assay [5] (Rate 31 g/ha) worked out at 90; in assay [5] (Rate 62 g/ha) it was 100.

For the compound `Cc1cnc(-n2cnc(C(F)(F)F)n2)nc1C(=O)c1cccc(C(F)(F)F)c1` [Compound 67], the “Plant response rating, Spanishneedles” value in assay [6] (Rate 32 g/ha) and in assay [6] (Rate 64 g/ha) was 0 each time.

Regarding `Cc1cnc(-n2ccc(C(F)(F)F)n2)nc1Cc1cccc(C(F)(F)F)c1` [Example 2, 5-methyl-4-[[3-(trifluoromethyl)phenyl]methyl]-2-[3-(trifluoromethyl)-1H-pyrazol-1-yl]pyrimidine], the figures for the “Plant response rating, Barnyardgrass” value in assay [7] (Rate 32 g/ha) and in [7] (Rate 64 g/ha) were 20 and 95, respectively. Moreover, the “Plant response rating, Sugarcane” value worked out at 20 in assay [8] (POSTEMERGENCE, Rate 32 g/ha); 20 in assay [8] (POSTEMERGENCE, Rate 64 g/ha); 20 in assay [8] (POSTEMERGENCE, Rate 125 g/ha); 25 in assay [8] (POSTEMERGENCE, Rate 250 g/ha); 25 in assay [8] (POSTEMERGENCE, Rate 500 g/ha); 0 in assay [8] (PREEMERGENCE, Rate 64 g/ha). For the same compound, the “Plant response rating, Sandbur” value in [9] (Rate 250 g/ha) and in [9] (Rate 500 g/ha) was 100 throughout. In addition, the “Plant response rating, B. signalgrass” value in assay [10] (Rate 32 g/ha) amounted to 65; in assay [10] (Rate 64 g/ha), 100; in assay [10] (Rate 125 g/ha) it was 100; in [10] (Rate 250 g/ha), 100. For the same compound, the “Plant response rating, P. morninglory” value in assay [11] (Rate 32 g/ha), in assay [11] (Rate 64 g/ha), in assay [11] (Rate 125 g/ha), in assay [11] (Rate 250 g/ha) and in assay [11] (Rate 500 g/ha) was 100 throughout. The “Plant response rating, Alexandergrass” value in assay [12] (Rate 125 g/ha), in [12] (Rate 250 g/ha) and in assay [12] (Rate 500 g/ha) was 100 in each case. For the same compound, the “Plant response rating, Com. chickweed” value in assay [13] (Rate 32 g/ha), in assay [13] (Rate 64 g/ha), in assay [13] (Rate 125 g/ha) and in [13] (Rate 250 g/ha) was 100 throughout. In addition, the “Plant response rating, Johnsongrass” value in [14] (Rate 250 g/ha) and in [14] (Rate 500 g/ha) was 100 in each case. Besides, the “Plant response rating, Leafy spurge” value in assay [15] (Rate 32 g/ha) is recorded as 60; in assay [15] (Rate 64 g/ha), 98; in [15] (Rate 125 g/ha), 100; in assay [15] (Rate 250 g/ha), 100. The “Plant response rating, A. bluegrass” value in assay [16] (Rate 32 g/ha) amounted to 80; in assay [16] (Rate 64 g/ha), 100; in assay [16] (Rate 125 g/ha), 100; in [16] (Rate 250 g/ha), 100. The “Plant response rating, Arrowleaf sida” value worked out at 98 in assay [17] (Rate 32 g/ha), 100 in assay [17] (Rate 64 g/ha), 100 in [17] (Rate 125 g/ha) and 100 in assay [17] (Rate 250 g/ha). The “Plant response rating, Quackgrass” value is 20 in assay [18] (Rate 32 g/ha), 90 in [18] (Rate 64 g/ha), 100 in assay [18] (Rate 125 g/ha) and 100 in [18] (Rate 250 g/ha). Further, the “Plant response rating, Green foxtail” value in assay [19] (Rate 32 g/ha) came to 90; in [19] (Rate 64 g/ha), 100; in assay [19] (Rate 125 g/ha), 100; in [19] (Rate 250 g/ha), 100. In addition, the “Plant response rating, Spanishneedles” value in assay [20] (Rate 64 g/ha), in assay [20] (Rate 125 g/ha), in [20] (Rate 250 g/ha) and in assay [20] (Rate 500 g/ha) was 100 in each case.

Regarding `Cc1cnc(-c2ccc(C(F)(F)F)cc2)nc1Cn1ccc(C(F)(F)F)n1` [compound 9], the “Plant response rating, Surinam grass” value in assay [1] (Rate 32 g/ha) is given as 0. For the same compound, in [6] (Rate 32 g/ha), the “Plant response rating, Spanishneedles” value worked out at 0. For the same compound, the “Plant response rating, P. morninglory” value in assay [11] (Rate 250 g/ha) was 100. Besides, the “Plant response rating, Alexandergrass” value in assay [12] (Rate 250 g/ha) came out at 100.
